Patent US7786137B2, “Bicyclic derivatives as modulators of ion channels” (Vertex Pharmaceuticals Incorporated, priority 2005, dated 2010)

Biological target: NaV1.3 (Homo sapiens, UniProt Q9NY46)
Experiment: VIPR optical membrane potential assay, NaV1.3 inhibition
Type: cell-based
Design: expressed in transfected cells; host or cells: HEK293
Conditions: activity against NaV 1.3 channel
Method: Antagonist properties of test compounds were assessed as follows. Cells expressing the NaV of interest were placed into microtiter plates. After an incubation period, the cells were stained with fluorescent dyes sensitive to the transmembrane potential. The test compounds were added to the microtiter plate. The cells were stimulated with either a chemical or electrical means to evoke a NaV dependent membrane potential change from unblocked channels, which was detected and measured with trans-membrane potential-sensitive dyes. Antagonists were detected as a decreased membrane potential response to the stimulus.
The following is an example of how NaV1.3 inhibition activity is measured using the optical membrane potential method#2. Other subtypes are performed in an analogous mode in a cell line expressing the NaV of interest.
HEK293 cells stably expressing NaV1.3 are plated into 96-well microtiter plates. After an appropriate incubation period, the cells are stained with the voltage sensitive dyes CC2-DMPE/DiSBAC2(3) as follows.
2× CC2-DMPE=20 μM CC2-DMPE: 10 mM CC2-DMPE is vortexed with an equivalent volume of 10% pluronic, followed by vortexing in required amount of HBSS containing 10 mM HEPES. Each cell plate will require 5 mL of 2× CC2-DMPE. 50 μL of 2× CC2-DMPE is to wells containing washed cells, resulting in a 10 μM final staining concentration. The cells are stained for 30 minutes in the dark at RT.
2× DISBAC2(3) with ABSC1=6 μM DISBAC2(3) and 1 mM ABSC1: The required amount of 10 mM DISBAC2(3) is added to a 50 ml conical tube and mixed with 1 μL 10% pluronic for each mL of solution to be made and vortexed together. Then HBSS/HEPES is added to make up 2× solution. Finally, the ABSC1 is added.
The 2× DiSBAC2(3) solution can be used to solvate compound plates. Note that compound plates are made at 2× drug concentration. Wash stained plate again, leaving residual volume of 50 μL. Add 50 μL/well of the 2× DiSBAC2(3) w/ABSC1. Stain for 30 minutes in the dark at RT.
The instrument comprises a microtiter plate handler, an optical system for exciting the coumarin dye while simultaneously recording the coumarin and oxonol emissions, a waveform generator, a current- or voltage-controlled amplifier, and a device for inserting electrodes in well. Under integrated computer control, this instrument passes user-programmed electrical stimulus protocols to cells within the wells of the microfilter plate.
Insert or use electrodes into each well to be assayed.
Use the current-controlled amplifier to deliver stimulation wave pulses for 3 s. Two seconds of pre-stimulus recording are performed to obtain the un-stimulated intensities. Five seconds of post-stimulation recording are performed to examine the relaxation to the resting state.
Data are analyzed and reported as normalized ratios of background-subtracted emission intensities measured in the 460 nm and 580 nm channels. Background intensities are then subtracted from each assay channel. Background intensities are obtained by measuring the emission intensities during the same time periods from identically treated assay wells in which there are no cells. The response as a function of time is then reported as the ratios obtained using the following formula: […]
The data is further reduced by calculating the initial (Ri) and final (Rf) ratios. These are the average ratio values during part or all of the pre-stimulation period, and during sample points during the stimulation period. The response to the stimulus ? =Rf/Ri is then calculated.
Control responses are obtained by performing assays in the presence of a compound with the desired properties (positive control), such as tetracaine, and in the absence of pharmacological agents (negative control). Responses to the negative (N) and positive (P) controls are calculated as above. The compound antagonist activity A is defined as:
[formula] where R is the ratio response of the test compound.

Chain of NaV1.3 (Q9NY46 whole entry): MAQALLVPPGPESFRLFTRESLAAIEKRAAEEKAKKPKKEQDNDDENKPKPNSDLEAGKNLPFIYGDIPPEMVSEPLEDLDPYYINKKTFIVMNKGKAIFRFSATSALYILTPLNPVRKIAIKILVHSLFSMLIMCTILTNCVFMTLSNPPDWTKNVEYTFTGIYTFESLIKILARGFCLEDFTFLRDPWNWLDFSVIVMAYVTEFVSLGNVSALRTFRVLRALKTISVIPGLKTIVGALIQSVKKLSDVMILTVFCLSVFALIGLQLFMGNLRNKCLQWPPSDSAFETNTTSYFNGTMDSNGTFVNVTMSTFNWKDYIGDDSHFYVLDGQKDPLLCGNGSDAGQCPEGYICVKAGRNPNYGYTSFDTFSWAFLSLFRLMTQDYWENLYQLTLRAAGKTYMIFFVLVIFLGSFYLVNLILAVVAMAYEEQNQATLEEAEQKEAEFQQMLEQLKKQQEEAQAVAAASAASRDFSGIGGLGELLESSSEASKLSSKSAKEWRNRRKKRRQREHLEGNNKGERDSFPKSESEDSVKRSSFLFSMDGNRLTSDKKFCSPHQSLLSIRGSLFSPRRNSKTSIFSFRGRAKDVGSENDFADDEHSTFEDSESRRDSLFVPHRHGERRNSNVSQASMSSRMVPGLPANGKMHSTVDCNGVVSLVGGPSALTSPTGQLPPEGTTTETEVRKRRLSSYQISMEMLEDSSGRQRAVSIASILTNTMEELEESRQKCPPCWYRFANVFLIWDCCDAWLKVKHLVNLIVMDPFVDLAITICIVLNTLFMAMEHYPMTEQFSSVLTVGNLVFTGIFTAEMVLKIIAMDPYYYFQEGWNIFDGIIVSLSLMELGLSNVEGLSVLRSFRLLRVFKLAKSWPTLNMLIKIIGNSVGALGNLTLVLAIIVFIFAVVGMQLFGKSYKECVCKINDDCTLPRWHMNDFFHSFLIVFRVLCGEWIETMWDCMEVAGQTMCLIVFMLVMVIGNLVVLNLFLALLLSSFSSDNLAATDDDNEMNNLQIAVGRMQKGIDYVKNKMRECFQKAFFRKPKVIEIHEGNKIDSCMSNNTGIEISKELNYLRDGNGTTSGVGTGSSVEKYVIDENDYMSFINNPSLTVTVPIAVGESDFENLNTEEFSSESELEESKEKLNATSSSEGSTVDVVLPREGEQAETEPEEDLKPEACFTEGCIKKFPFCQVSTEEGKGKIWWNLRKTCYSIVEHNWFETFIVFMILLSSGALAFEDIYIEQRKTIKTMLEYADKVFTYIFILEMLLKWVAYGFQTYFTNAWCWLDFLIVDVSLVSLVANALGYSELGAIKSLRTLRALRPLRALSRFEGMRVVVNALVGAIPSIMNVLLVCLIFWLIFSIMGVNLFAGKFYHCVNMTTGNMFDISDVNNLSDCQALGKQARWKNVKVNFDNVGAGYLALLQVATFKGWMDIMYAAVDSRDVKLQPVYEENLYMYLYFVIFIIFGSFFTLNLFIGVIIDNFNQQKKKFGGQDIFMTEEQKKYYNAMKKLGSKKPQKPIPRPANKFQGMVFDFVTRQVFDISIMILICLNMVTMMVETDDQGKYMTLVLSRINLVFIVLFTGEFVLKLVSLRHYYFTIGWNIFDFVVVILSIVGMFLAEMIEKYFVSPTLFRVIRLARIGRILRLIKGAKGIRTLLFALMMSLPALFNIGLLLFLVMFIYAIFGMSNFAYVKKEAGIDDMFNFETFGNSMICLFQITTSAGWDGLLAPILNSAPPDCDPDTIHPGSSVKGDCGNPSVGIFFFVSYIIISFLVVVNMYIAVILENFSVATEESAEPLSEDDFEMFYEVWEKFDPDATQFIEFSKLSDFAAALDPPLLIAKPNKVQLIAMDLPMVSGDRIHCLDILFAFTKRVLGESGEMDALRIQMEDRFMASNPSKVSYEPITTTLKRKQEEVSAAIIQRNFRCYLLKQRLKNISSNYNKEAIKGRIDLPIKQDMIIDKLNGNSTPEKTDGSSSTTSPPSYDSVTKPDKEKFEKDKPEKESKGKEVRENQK

Row | SMILES | IC50 [nM]
1 | Cc1nnc(NS(=O)(=O)c2ccc3c(c2)CN(C(=O)[C@@H](C)N2CCCc4cc(Cl)ccc42)C3)s1 [Compound 98] | 2000 to 5000
2 | O=C(COc1ccc(Cl)cc1)N1CCc2cc(S(=O)(=O)Nc3ncns3)ccc21 [Compound 147] | < 2000
3 | O=C(Cc1ccc(OC(F)(F)F)cc1)N1CCc2cc(S(=O)(=O)Nc3nccs3)ccc21 [Compound 51] | < 2000
4 | O=C(N1CCc2cc(S(=O)(=O)Nc3nccs3)ccc21)C1(c2ccccc2)CC1 [Compound 54] | < 2000
5 | COc1cc(C(=O)n2ccc3cc(S(=O)(=O)Nc4nccs4)ccc32)ccc1C [Compound 55] | 2000 to 5000
6 | Cc1ccc(CC(=O)N2CCc3cc(S(=O)(=O)Nc4nccs4)ccc32)cc1 [Compound 26] | < 2000
7 | C[C@@H](C(=O)N1CCc2cc(S(=O)(=O)Nc3ncns3)ccc21)n1ccc2c(F)cccc21 [Compound 142] | < 2000
8 | O=C(c1ccc(C(F)(F)F)cc1)N1CCCc2cc(S(=O)(=O)Nc3nccs3)ccc21 [Compound 132] | 2000 to 5000
9 | COc1ccc(CCC(=O)n2ccc3cc(S(=O)(=O)Nc4nccs4)ccc32)cc1 [Compound 187] | < 2000
10 | C[C@H](C(=O)N1CCc2cc(S(=O)(=O)Nc3ncns3)ccc21)n1ccc2ccccc21 [Compound 202] | < 2000
11 | O=C(c1ccc(Cl)c(Cl)c1)n1ccc2cc(S(=O)(=O)Nc3nccs3)ccc21 [Compound 126] | 2000 to 5000
12 | O=C(Oc1cccc(C(F)(F)F)c1)N1CCc2cc(S(=O)(=O)Nc3nccs3)ccc21 [Compound 106] | 2000 to 5000
13 | O=C(c1ccc(Cl)c(Cl)c1)N1CCc2cc(S(=O)(=O)Nc3ncns3)ccc21 [Compound 89] | < 2000
14 | O=C(CCCOc1ccc(Cl)cc1Cl)N1CCCc2cc(S(=O)(=O)Nc3nccs3)ccc21 [Compound 180] | < 2000
15 | Cc1ccc(OCC(=O)N2CCc3cc(S(=O)(=O)Nc4nccs4)ccc32)cc1C [Compound 79] | < 2000
16 | CC(C(=O)n1ccc2cc(S(=O)(=O)Nc3nccs3)ccc21)n1ccc2ccccc21 (stereo not shown) [Compound 201] | > 5000
17 | CC(Oc1ccccc1)C(=O)N1CCCc2cc(S(=O)(=O)Nc3nccs3)ccc21 (stereo not shown) [Compound 39] | > 5000
18 | O=C(COc1ccc(F)c(Cl)c1)N1CCc2cc(S(=O)(=O)Nc3nccs3)ccc21 [Compound 30] | < 2000

Row | SMILES | IC50 [nM]
19 | CC(C)(Oc1ccc(Cl)cc1)C(=O)n1ccc2cc(S(=O)(=O)Nc3nccs3)ccc21 [Compound 173] | 2000 to 5000
20 | Cc1ccccc1CC(=O)N1CCc2cc(S(=O)(=O)Nc3nccs3)ccc21 [Compound 107] | < 2000
21 | O=C(CNc1ccc(C(F)(F)F)cc1)N1CCc2cc(S(=O)(=O)Nc3nccs3)ccc21 [Compound 68] | 2000 to 5000
22 | O=S(=O)(Nc1nccs1)c1ccc2c(c1)CCN2CCNc1nc2ccccc2[nH]1 [Compound 66] | > 5000
23 | COc1cccc(CCC(=O)n2ccc3cc(S(=O)(=O)Nc4nccs4)ccc32)c1 [Compound 18] | < 2000
24 | O=C(CN1CCc2ccc(F)cc2C1)N1CCc2cc(S(=O)(=O)Nc3nccs3)ccc21 [Compound 137] | < 2000
25 | COc1ccc(NCCN2CCc3cc(S(=O)(=O)Nc4nccs4)ccc32)cc1 [Compound 100] | > 5000
26 | CC1CN(CC(=O)N2CCc3cc(S(=O)(=O)Nc4nccs4)ccc32)CC(C)O1 (stereo not shown) [Compound 85] | > 5000
27 | O=C(CNC1CCCCC1)N1CCc2cc(S(=O)(=O)Nc3nccs3)ccc21 [Compound 104] | > 5000
28 | O=C(CNCc1ccccc1)N1CCc2cc(S(=O)(=O)Nc3nccs3)ccc21 [Compound 24] | > 5000
29 | CC(Oc1cc(Cl)ccc1Cl)C(=O)N1CCc2cc(S(=O)(=O)Nc3nccs3)ccc21 (stereo not shown) [Compound 21] | < 2000
30 | O=C(CCn1ccc2cc(Cl)ccc21)N1CCc2cc(S(=O)(=O)Nc3nccs3)ccc21 [Compound 209] | < 2000
31 | COc1cccc(CCC(=O)N2CCc3cc(S(=O)(=O)Nc4nccs4)ccc32)c1 [Compound 192] | < 2000
32 | O=C(Cc1ccccc1)N1CCc2cc(S(=O)(=O)Nc3nccs3)ccc21 [Compound 188] | < 2000
33 | O=C(COc1cccc(Cl)c1)N1CCCc2cc(S(=O)(=O)Nc3nccs3)ccc21 [Compound 111] | < 2000
34 | O=C(COc1ccc(F)cc1)N1Cc2ccc(S(=O)(=O)Nc3nccs3)cc2C1 [Compound 115] | < 2000
35 | O=C(CNc1ccc(F)c(Cl)c1)N1CCc2cc(S(=O)(=O)Nc3nccs3)ccc21 [Compound 48] | 2000 to 5000

More lines, now with the values ahead:

Row | IC50 [nM] | SMILES
36 | < 2000 | O=C(CNc1cccc(F)c1)N1CCc2cc(S(=O)(=O)Nc3nccs3)ccc21 [Compound 198]
37 | > 5000 | O=C(COc1ccccc1)N1CCc2ccc(S(=O)(=O)Nc3nccs3)cc2C1 [Compound 12]
38 | > 5000 | CC(Oc1ccc(OC(F)(F)F)cc1)C(=O)N1CCc2ccc(S(=O)(=O)Nc3nccs3)cc2C1 (stereo not shown) [Compound 141]
39 | > 5000 | O=C(COc1ccnc2c(C(F)(F)F)cccc12)N1CCc2ccc(S(=O)(=O)Nc3nncs3)cc2C1 [Compound 45]
40 | > 5000 | Cc1ccc(F)c(C(=O)N2CCc3cc(S(=O)(=O)Nc4nccs4)ccc32)c1 [Compound 4]
41 | 2000 to 5000 | COc1ccccc1CC(=O)N1CCc2cc(S(=O)(=O)Nc3nccs3)ccc21 [Compound 10]
42 | < 2000 | CC(Oc1cccc(Cl)c1)C(=O)N1Cc2ccc(S(=O)(=O)Nc3nccs3)cc2C1 (stereo not shown) [Compound 62]
43 | < 2000 | Cc1ccccc1OCC(=O)N1CCc2cc(S(=O)(=O)Nc3nccs3)ccc21 [Compound 134]
44 | > 5000 | O=C(c1ccc(F)cc1F)N1CCc2ccc(S(=O)(=O)Nc3nccs3)cc2C1 [Compound 73]
45 | > 5000 | COc1cc(NCC(=O)N2CCc3cc(S(=O)(=O)Nc4nccs4)ccc32)cc(OC)c1 [Compound 108]
46 | < 2000 | O=C(COc1cccc(Cl)c1)N1Cc2ccc(S(=O)(=O)Nc3nccs3)cc2C1 [Compound 11]
47 | < 2000 | CC(Oc1ccccc1Cl)C(=O)N1CCc2cc(S(=O)(=O)Nc3ncns3)ccc21 (stereo not shown) [Compound 185]
48 | 2000 to 5000 | Cc1ccc(F)c(C(=O)n2ccc3cc(S(=O)(=O)Nc4nccs4)ccc32)c1 [Compound 195]
49 | > 5000 | Cc1ccc(C(=O)n2ccc3cc(S(=O)(=O)Nc4nccs4)ccc32)cc1Cl [Compound 191]
50 | 2000 to 5000 | Cc1ccccc1CNCC(=O)N1CCc2cc(S(=O)(=O)Nc3nccs3)ccc21 [Compound 35]
51 | < 2000 | O=C(CN1CCc2ccc(Cl)cc2C1)N1CCc2cc(S(=O)(=O)Nc3nccs3)ccc21 [Compound 44]
52 | < 2000 | COc1cccc(CC(=O)N2CCc3cc(S(=O)(=O)Nc4ncns4)ccc32)c1 [Compound 31]
53 | > 5000 | O=S(=O)(Nc1nccs1)c1ccc2c(c1)CCN2CCNc1cnc2ccccc2c1 [Compound 22]
54 | < 2000 | CC(Oc1ccccc1Cl)C(=O)N1CCc2cc(S(=O)(=O)Nc3nccs3)ccc21 (stereo not shown) [Compound 148]
55 | < 2000 | O=C(COc1cccc(Cl)c1Cl)N1CCc2cc(S(=O)(=O)Nc3nccs3)ccc21 [Compound 67]
56 | > 5000 | C[C@@H](C(=O)N1Cc2ccc(S(=O)(=O)Nc3ccncn3)cc2C1)n1ccc2c(F)cccc21 [Compound 203]
57 | < 2000 | CC(C(=O)N1CCc2cc(S(=O)(=O)Nc3nccs3)ccc21)n1ccc2ccccc21 (stereo not shown) [Compound 204]
58 | 2000 to 5000 | O=C(c1ccc(Cl)cc1Cl)N1CCc2ccc(S(=O)(=O)Nc3nccs3)cc2C1 [Compound 151]
